Where “and” joins values, the source holds several entries; their conditions need not be identical. Equal entries are not always repeated. Where two headings read alike, the source gives them in different places.
Key:
SARS-CoV-2 M^pro [1] = target: T1, SARS-CoV-2 M^pro (Severe acute respiratory syndrome coronavirus 2, UniProt P0DTD1); test: Fast dilution experiment; type: biochemical; settings: 10 μM M^pro pre-incubated with 10 μM compound for 2 h at 30 °C, diluted 100-fold; compared with DMSO control
SARS-CoV-2 [2] = type: cell-based; settings: read-out: Antiviral EC50 against SARS-CoV-2 in Vero E6 cells
cathepsin L = cathepsin L (Homo sapiens, UniProt P07711); test: Host protease selectivity, FRET-based enzymatic assay: cathepsin L; type: biochemical; settings: for Inhibition of cathepsin L (in words): host protease selectivity
cathepsin K = cathepsin K (Homo sapiens, UniProt P43235); test: Host protease selectivity, FRET-based enzymatic assay: cathepsin K; type: biochemical
cathepsin B = cathepsin B (Homo sapiens, UniProt P07858); test: Host protease selectivity, FRET-based enzymatic assay: cathepsin B; type: biochemical
calpain I = calpain I (Homo sapiens, UniProt P07384); test: Host protease selectivity, FRET-based enzymatic assay: calpain I; type: biochemical
caspase-3 = caspase-3 (Homo sapiens, UniProt P42574); test: Host protease selectivity, FRET-based enzymatic assay: caspase-3; type: biochemical; settings: for Inhibition of caspase-3 (in words): host protease selectivity
trypsin = test: Host protease selectivity, FRET-based enzymatic assay: trypsin; type: biochemical
SARS-CoV-2 M^pro [3] = target: T1, SARS-CoV-2 M^pro; type: cell-based; settings: read-out: FlipGFP M^pro assay EC50
SARS-CoV-2 M^pro [4] = target: T1, SARS-CoV-2 M^pro; type: binding; settings: native mass spectrometry
SARS-CoV-2 M^pro [5] = target: T1, SARS-CoV-2 M^pro; type: biochemical; settings: read-out: SARS-CoV-2 M^pro IC50
SARS-CoV-2 M^pro [6] = target: T1, SARS-CoV-2 M^pro; test: Thermal shift-binding assay; settings: result in words
SARS-CoV-2 [7] = type: cell-based; settings: read-out: Antiviral EC50 against SARS-CoV-2 in Calu-3 cells

cathepsin K, sequence (P43235 115-329): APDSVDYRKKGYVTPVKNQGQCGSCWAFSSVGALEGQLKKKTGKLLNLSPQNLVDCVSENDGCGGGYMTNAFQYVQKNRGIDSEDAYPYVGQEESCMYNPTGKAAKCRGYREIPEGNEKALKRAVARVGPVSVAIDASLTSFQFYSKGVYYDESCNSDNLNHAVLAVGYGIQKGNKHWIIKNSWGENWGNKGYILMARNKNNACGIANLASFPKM
cathepsin L, sequence (P07711 114-333 limits assumed): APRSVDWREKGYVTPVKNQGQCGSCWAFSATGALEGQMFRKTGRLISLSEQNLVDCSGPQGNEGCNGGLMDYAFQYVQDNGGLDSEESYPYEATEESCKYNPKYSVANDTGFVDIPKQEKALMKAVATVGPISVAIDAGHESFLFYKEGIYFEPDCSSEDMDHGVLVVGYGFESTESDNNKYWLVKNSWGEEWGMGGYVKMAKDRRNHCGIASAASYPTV
caspase-3, sequence (P42574 29-175): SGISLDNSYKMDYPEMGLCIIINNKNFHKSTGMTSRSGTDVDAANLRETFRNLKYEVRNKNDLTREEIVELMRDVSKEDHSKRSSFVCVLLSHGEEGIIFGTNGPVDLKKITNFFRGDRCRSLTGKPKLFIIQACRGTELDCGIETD
caspase-3, sequence (P42574 176-277): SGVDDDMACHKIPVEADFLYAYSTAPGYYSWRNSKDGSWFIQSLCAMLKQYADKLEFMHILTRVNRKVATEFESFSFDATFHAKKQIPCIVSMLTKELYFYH
calpain I, sequence (P07384 whole entry): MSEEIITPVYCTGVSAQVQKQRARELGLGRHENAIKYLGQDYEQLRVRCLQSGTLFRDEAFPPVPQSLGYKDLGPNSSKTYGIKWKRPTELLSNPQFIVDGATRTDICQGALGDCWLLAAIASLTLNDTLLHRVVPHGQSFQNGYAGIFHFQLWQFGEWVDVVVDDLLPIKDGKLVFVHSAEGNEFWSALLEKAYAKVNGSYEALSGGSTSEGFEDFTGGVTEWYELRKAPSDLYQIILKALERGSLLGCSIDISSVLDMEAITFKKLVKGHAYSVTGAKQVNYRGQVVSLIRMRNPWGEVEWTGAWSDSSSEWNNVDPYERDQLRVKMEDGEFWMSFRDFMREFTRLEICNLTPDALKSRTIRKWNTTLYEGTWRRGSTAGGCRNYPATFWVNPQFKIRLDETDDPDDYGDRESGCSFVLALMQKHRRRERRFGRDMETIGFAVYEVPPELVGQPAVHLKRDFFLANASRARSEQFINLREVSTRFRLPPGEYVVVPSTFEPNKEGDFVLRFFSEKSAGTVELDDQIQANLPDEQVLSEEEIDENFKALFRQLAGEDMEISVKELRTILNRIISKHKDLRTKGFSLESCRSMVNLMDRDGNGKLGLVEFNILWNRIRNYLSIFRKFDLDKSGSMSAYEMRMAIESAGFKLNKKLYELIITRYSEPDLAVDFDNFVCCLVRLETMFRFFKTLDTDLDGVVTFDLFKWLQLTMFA
calpain I, sequence (P04632 whole entry, further chain): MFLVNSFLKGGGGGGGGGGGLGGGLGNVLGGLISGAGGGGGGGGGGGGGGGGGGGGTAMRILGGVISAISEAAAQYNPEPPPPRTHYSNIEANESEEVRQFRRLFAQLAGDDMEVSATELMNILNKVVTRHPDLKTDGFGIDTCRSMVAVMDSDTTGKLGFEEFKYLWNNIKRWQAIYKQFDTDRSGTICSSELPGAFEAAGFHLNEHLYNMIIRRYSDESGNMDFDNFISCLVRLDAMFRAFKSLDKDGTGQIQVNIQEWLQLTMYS

For C[C@H](NC(=O)[C@@H](c1cccnc1)N(C(=O)c1ccco1)c1ccc(-c2ccccc2)cc1)c1ccccc1 [23R], which “Recovered enzymatic activity after 100-fold dilution” value (SARS-CoV-2 M^pro [1]) is on record?
The value was “nearly complete recovery of enzymatic activity”.

How did the EC50 (SARS-CoV-2 [2]) turn out when CC(C)C[C@H](NC(=O)OCc1ccccc1)C(=O)N[C@@H](CC1CCNC1=O)C(O)S(=O)(=O)[O-].[Na+] (stereo partly drawn) [GC-376, reference compound] was run?
Its EC50 is 1.51 µM.

What about the “Inhibition of cathepsin L (in words)” value (cathepsin L) of the same compound?
The value was “potent inhibition”.

And the “Inhibition of cathepsin K (in words)” value (cathepsin K)?
The value was “potent inhibition”.

And the “Inhibition of cathepsin B (in words)” value (cathepsin B)?
The value was “potent inhibition”.

What about the “Inhibition of calpain I (in words)” value (calpain I) of the same compound?
The value was “potent inhibition”.

And the IC50 (caspase-3; read-out: Caspase-3 IC50, FRET-based enzymatic assay)?
The IC50 was > 20 µM.

What does the source list for CC#CC(=O)N(c1ccc(-c2ccccc2)cc1)C(C(=O)N[C@@H](C)c1ccccc1)c1cccnc1 (stereo partly drawn) [Jun9-62-1]?
CC50 (Calu-3 cells): 47.8 µM; CC50 (Vero E6 cells): 18 µM

For C[C@H](NC(=O)[C@@H](c1cccnc1)N(C(=O)C(Cl)Cl)c1ccc(-c2ccccc2)cc1)c1ccccc1 [Jun9-62-2R], which EC50 (SARS-CoV-2 [2]) is on record?
The EC50 was 0.9 µM.

What about the “Inhibition of cathepsin L (in words)” value (cathepsin L) of the same compound?
The value was “did not show potent inhibition”.

What about the EC50 (SARS-CoV-2 M^pro [3]) of the same compound?
The EC50 was 0.96 µM.

What about the “Inhibition of cathepsin K (in words)” value (cathepsin K) of the same compound?
Its value is “did not show potent inhibition”.

What about the “Inhibition of cathepsin B (in words)” value (cathepsin B) of the same compound?
The value was “did not show potent inhibition”.

And the “Inhibition of calpain I (in words)” value (calpain I)?
The value was “did not show potent inhibition”.

What about the “Inhibition of caspase-3 (in words)” value (caspase-3) of the same compound?
Its value is “did not show potent inhibition”.

What about the “Mass modification of M^pro (covalent adduct)” value (“Mass modification of M^pro” for short) (SARS-CoV-2 M^pro [4]) of the same compound?
The value was 482 Da.

And the “Inhibition of trypsin (in words)” value (trypsin)?
Its value is “did not show potent inhibition”.

For C[C@H](NC(=O)[C@H](c1cccnc1)N(C(=O)C(Cl)Cl)c1ccc(-c2ccccc2)cc1)c1ccccc1 [Jun9-62-2S], which IC50 (SARS-CoV-2 M^pro [5]) is on record?
Its IC50 is > 20 µM.

For C[C@H](NC(=O)[C@@H](c1cccnc1)N(C(=O)C(Br)(Br)Br)c1ccc(-c2ccccc2)cc1)c1ccccc1 [Jun9-88-6R], which EC50 (SARS-CoV-2 [2]) is on record?
The EC50 was 0.58 µM.

And the “Inhibition of cathepsin L (in words)” value (cathepsin L)?
Its value is “did not show potent inhibition”.

What about the IC50 (cathepsin L; read-out: Cathepsin L IC50, FRET-based enzymatic assay) of the same compound?
Its IC50 is 7.37 µM.

What about the “Inhibition of cathepsin K (in words)” value (cathepsin K) of the same compound?
The value was “did not show potent inhibition”.

And the “Inhibition of cathepsin B (in words)” value (cathepsin B)?
Its value is “did not show potent inhibition”.

And the “Inhibition of calpain I (in words)” value (calpain I)?
The value was “did not show potent inhibition”.

What about the “Inhibition of caspase-3 (in words)” value (caspase-3) of the same compound?
Its value is “did not show potent inhibition”.

What about the CC50 (Vero E6 cells) of the same compound?
Its CC50 is 5.48 µM.

What about the “Mass modification of M^pro” value (SARS-CoV-2 M^pro [4]) of the same compound?
Its value is 526 Da.

What about the “Tm shift of SARS-CoV-2 M^pro upon binding” value (shortened to “Tm shift”) (SARS-CoV-2 M^pro [6]) of the same compound?
Its value is “stabilized”.

C[C@H](NC(=O)[C@H](c1cccnc1)N(C(=O)C(Br)(Br)Br)c1ccc(-c2ccccc2)cc1)c1ccccc1 [Jun9-88-6S] was tested. Which CC50 (Vero E6 cells) did it give?
Its CC50 is 5.99 µM.

What does the source list for C[C@H](NC(=O)[C@@H](c1cccnc1)N(C(=O)C(Br)Br)c1ccc(-c2ccccc2)cc1)c1ccccc1 [Jun9-89-2R]?
IC50 (SARS-CoV-2 M^pro [5]; FRET-based enzymatic assay): 0.08 µM; CC50 (Vero E6 cells): 8.94 µM; Mass modification of M^pro (covalent adduct) (SARS-CoV-2 M^pro [4]): 526 Da

How did the IC50 (SARS-CoV-2 M^pro [5]; FRET-based enzymatic assay) turn out when C[C@H](NC(=O)[C@H](c1cccnc1)N(C(=O)C(Br)Br)c1ccc(-c2ccccc2)cc1)c1ccccc1 [Jun9-89-2S] was run?
Its IC50 is 2.44 µM.

And the CC50 (Vero E6 cells)?
The CC50 was 4.57 µM.

With C[C@H](NC(=O)C(c1cccnc1)N(C(=O)C(Cl)(Cl)Br)c1ccc(-c2ccccc2)cc1)c1ccccc1 (stereo partly drawn) [Jun9-89-3] as the compound, how does the CC50 (Vero E6 cells) read?
Its CC50 is 32.4 µM.

Which CC50 (Vero E6 cells) does the source give for C[C@H](NC(=O)[C@@H](c1cccnc1)N(C(=O)C(Cl)(Br)Br)c1ccc(-c2ccccc2)cc1)c1ccccc1 [Jun9-89-4R] here?
The CC50 was 8.41 µM.

And the “Mass modification of M^pro” value (SARS-CoV-2 M^pro [4])?
Its value is 481 Da and 561 Da.

With C[C@H](NC(=O)[C@@H](c1cccnc1)N(C(=O)C(Cl)Cl)c1ccc(-c2ccccc2)cc1)c1ccc(Br)cc1 [Jun9-90-3R] as the compound, how does the EC50 (SARS-CoV-2 [2]) read?
Its EC50 is 2.07 µM.

And the EC50 (SARS-CoV-2 [7])?
The EC50 was 2 µM.

And the “Tm shift” value (SARS-CoV-2 M^pro [6])?
Its value is “stabilized”.

For C[C@H](NC(=O)[C@H](c1cccnc1)N(C(=O)C(Cl)Cl)c1ccc(-c2ccccc2)cc1)c1ccc(Br)cc1 [Jun9-90-3S], which IC50 (SARS-CoV-2 M^pro [5]) is on record?
The IC50 was > 20 µM.

With C[C@@H](CCc1ccccc1)NC(=O)[C@@H](c1cccnc1)N(C(=O)C(Cl)Cl)c1ccc(-c2ccccc2)cc1 [Jun9-90-4R] as the compound, how does the EC50 (SARS-CoV-2 [2]) read?
The EC50 was 1.1 µM.

What about the “Tm shift” value (SARS-CoV-2 M^pro [6]) of the same compound?
Its value is “stabilized”.
